PubChem BioAssay AID248 (DTP/NCI, 2004)
“And” between values parts separate entries of the source, which are not always exact repeats. Equal values may be shown once. Toxic doses and inconclusive results are not listed. Rule as the data show it: active = T/C of 150% or more; inactive = T/C below 125%.

Tested on: L1210 leukemia ip in BDF1 mice, survival T/C
Experiment: NCI In Vivo Anticancer Drug Screen. Data for tumor model L1210 Leukemia (intraperitoneal) in B6D2F1 (BDF1) mice
Conditions: endpoint: mean survival time, higher = longer survival
Method in brief: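 Each compound was tested against a transplantable tumor grown in mice. The endpoint was survival, with treated animals benchmarked against vehicle controls as a simple ratio.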

[1] = dose: 100.0 mg/kg/injection, schedule: Q01DX001 (ip), vehicle: saline
[2] = dose: 200.0 mg/kg/injection, schedule: Q01DX001 (ip), vehicle: saline
[3] = dose: 400.0 mg/kg/injection, schedule: Q01DX001 (ip), vehicle: saline
[4] = dose: 100.0 mg/kg/injection, schedule: Q04DX002 (ip), vehicle: Klucel (hydroxypropylcellulose) (HPC)
[5] = dose: 200.0 mg/kg/injection, schedule: Q04DX002 (ip), vehicle: Klucel (hydroxypropylcellulose) (HPC)
[6] = dose: 400.0 mg/kg/injection, schedule: Q04DX002 (ip), vehicle: Klucel (hydroxypropylcellulose) (HPC)
[7] = dose: 25.0 mg/kg/injection, schedule: Q04DX002 (ip), vehicle: saline with Tween-80
[8] = dose: 50.0 mg/kg/injection, schedule: Q04DX002 (ip), vehicle: saline with Tween-80
[9] = dose: 100.0 mg/kg/injection, schedule: Q04DX003 (ip), vehicle: saline with Tween-80
[10] = dose: 200.0 mg/kg/injection, schedule: Q04DX003 (ip), vehicle: saline with Tween-80
[11] = dose: 400.0 mg/kg/injection, schedule: Q04DX003 (ip), vehicle: saline with Tween-80
[12] = dose: 100.0 mg/kg/injection, schedule: Q04DX003 (ip), vehicle: saline
[13] = dose: 200.0 mg/kg/injection, schedule: Q04DX003 (ip), vehicle: saline
[14] = dose: 400.0 mg/kg/injection, schedule: Q04DX003 (ip), vehicle: saline
[15] = dose: 50.0 mg/kg/injection, schedule: Q01DX001 (ip), vehicle: saline

Measured: T/C

Nc1nc(N)c2[nH]cnc2n1
inactive: dose: 12.5 mg/kg/injection, schedule: Q01DX Z (ip), vehicle: carboxymethylcellulose (CMC) 91 % of control | dose: 17.49 mg/kg/injection, schedule: Q01DX Z (ip), vehicle: carboxymethylcellulose (CMC) 86 % of control | dose: 25.0 mg/kg/injection, schedule: Q01DX009 (ip), vehicle: Klucel (hydroxypropylcellulose) (HPC) 111 % of control | dose: 25.0 mg/kg/injection, schedule: Q01DX Z (ip), vehicle: carboxymethylcellulose (CMC) 93 % of control | dose: 34.98 mg/kg/injection, schedule: Q01DX Z (ip), vehicle: carboxymethylcellulose (CMC) 92 % of control | dose: 44.0 mg/kg/injection, schedule: Q02DX010 (ip), vehicle: other 100 % of control | dose: 50.0 mg/kg/injection, schedule: Q01DX009 (ip), vehicle: Klucel (hydroxypropylcellulose) (HPC) 110 % of control | dose: 66.0 mg/kg/injection, schedule: Q02DX010 (ip), vehicle: other 105 % of control | dose: 69.95 mg/kg/injection, schedule: Q01DX Z (ip), vehicle: carboxymethylcellulose (CMC) 95 % of control | dose: 100.0 mg/kg/injection, schedule: Q01DX001 (ip), vehicle: carboxymethylcellulose (CMC) 97 % of control | dose: 100.0 mg/kg/injection, schedule: Q01DX Z (ip), vehicle: carboxymethylcellulose (CMC) 91 % of control | dose: 100.0 mg/kg/injection, schedule: Q02DX010 (ip), vehicle: other 116 % of control | dose: 139.9 mg/kg/injection, schedule: Q01DX Z (ip), vehicle: carboxymethylcellulose (CMC) 106 % of control | dose: 150.0 mg/kg/injection, schedule: Q02DX010 (ip), vehicle: other 117 % of control | dose: 200.0 mg/kg/injection, schedule: Q01DX001 (ip), vehicle: carboxymethylcellulose (CMC) 90 % of control | dose: 225.0 mg/kg/injection, schedule: Q02DX010 (ip), vehicle: other 60 % of control | dose: 400.0 mg/kg/injection, schedule: Q01DX001 (ip), vehicle: carboxymethylcellulose (CMC) 97 % of control

Nc1ccc(NC(=S)S)cc1
inactive: dose: 75.0 mg/kg/injection, schedule: Q01DX001 (ip), vehicle: saline 93 % of control | dose: 150.0 mg/kg/injection, schedule: Q01DX001 (ip), vehicle: saline 93 % of control

CCC(CC)C(O)(C(=O)O)C(CC)CC
inactive: [1] 95 % of control | [2] 89 % of control | [3] 97 % of control

COc1ccc(CCNC(=O)c2ccccc2N=Cc2cc(Cl)cc(Cl)c2O)cc1OC
inactive: dose: 75.0 mg/kg/injection, schedule: Q01DX009 (ip), vehicle: Klucel (hydroxypropylcellulose) (HPC) 94 % of control | dose: 150.0 mg/kg/injection, schedule: Q01DX009 (ip), vehicle: Klucel (hydroxypropylcellulose) (HPC) 96 % of control | dose: 300.0 mg/kg/injection, schedule: Q01DX009 (ip), vehicle: Klucel (hydroxypropylcellulose) (HPC) 96 % of control

O=[N+]([O-])c1ccc(N=NN(CCF)CCF)cc1
inactive: dose: 6.25 mg/kg/injection, schedule: Q01DX Z (ip), vehicle: saline 93 % of control | dose: 10.0 mg/kg/injection, schedule: Q01DX Z (ip), vehicle: saline 97 % of control | dose: 30.0 mg/kg/injection, schedule: Q01DX Z (ip), vehicle: saline 108 % of control

CC(=O)Oc1ccc2c3c(cccc13)CC2
inactive: dose: 100.0 mg/kg/injection, schedule: Q01DX009 (ip), vehicle: saline with Tween-80 97 % of control | dose: 200.0 mg/kg/injection, schedule: Q01DX009 (ip), vehicle: saline with Tween-80 96 % of control | dose: 400.0 mg/kg/injection, schedule: Q01DX009 (ip), vehicle: saline with Tween-80 92 % of control

CCCCCCCCCCCC(=O)[O][Pb]([CH2]CCC)([CH2]CCC)[O]C(=O)CCCCCCCCCCC
inactive: dose: 6.25 mg/kg/injection, schedule: Q04DX002 (ip), vehicle: gum acacia 95 % of control | dose: 12.5 mg/kg/injection, schedule: Q04DX002 (ip), vehicle: gum acacia 92 % of control and 98 % of control | dose: 25.0 mg/kg/injection, schedule: Q04DX002 (ip), vehicle: gum acacia 88 % of control

O=C1OCC/C1=C\OCCc1ccccc1
inactive: [4] 98 % of control | [5] 94 % of control | [6] 94 % of control

CCOP(=O)(CSc1ccccc1)OCC
inactive: dose: 25.0 mg/kg/injection, schedule: Q01DX009 (ip), vehicle: saline with Tween-80 93 % of control | [7] 107 % of control | dose: 50.0 mg/kg/injection, schedule: Q01DX009 (ip), vehicle: saline with Tween-80 100 % of control | [8] 107 % of control | dose: 100.0 mg/kg/injection, schedule: Q04DX002 (ip), vehicle: saline with Tween-80 86 % of control

C=Cc1cnc(N)nc1-c1ccccc1
inactive: [9] 90 % of control | [10] 105 % of control | [11] 97 % of control

O=[N+]([O-])c1ccc(/C=N/N2CCOCC2)s1
inactive: [12] 102 % of control | [13] 97 % of control | [14] 102 % of control

CCN(CC)CCN(CC)C(=O)C1C(c2ccccc2)C1c1ccccc1 (centres undefined)
inactive: dose: 25.0 mg/kg/injection, schedule: Q04DX002 (ip), vehicle: Klucel (hydroxypropylcellulose) (HPC) 102 % of control | dose: 50.0 mg/kg/injection, schedule: Q04DX002 (ip), vehicle: Klucel (hydroxypropylcellulose) (HPC) 102 % of control

CCOC(=O)C(=O)Nc1ccc(Cl)cc1
inactive: dose: 100.0 mg/kg/injection, schedule: Q01DX001 (ip), vehicle: saline with Tween-80 96 % of control | dose: 200.0 mg/kg/injection, schedule: Q01DX001 (ip), vehicle: saline with Tween-80 96 % of control | dose: 400.0 mg/kg/injection, schedule: Q01DX001 (ip), vehicle: saline with Tween-80 95 % of control

O=C(c1ccccc1)C(C(C(=O)c1ccccc1)N1CCOCC1)N1CCOCC1 (centres undefined)
inactive: [15] 94 % of control | [1] 94 % of control | [2] 102 % of control | [3] 94 % of control

CC(C)NNC(=O)c1cccnc1
inactive: dose: 25.0 mg/kg/injection, schedule: Q01DX009 (ip), vehicle: saline 97 % of control and 108 % of control | dose: 50.0 mg/kg/injection, schedule: Q01DX009 (ip), vehicle: saline 94 % of control and 103 % of control | [1] 95 % of control | [12] 96 % of control | [2] 96 % of control | dose: 200.0 mg/kg/injection, schedule: Q01DX009 (ip), vehicle: saline 94 % of control | [13] 98 % of control | [3] 95 % of control | [14] 96 % of control

COc1cccc(/C=C2\SC(=S)NC2=O)c1
inactive: [1] 101 % of control | [2] 95 % of control | [3] 95 % of control

Nc1nc(N)c(N=Nc2ccc([As](=O)(O)O)c(O)c2)c(N)n1
inactive: [1] 92 % of control | [2] 92 % of control | [3] 100 % of control

NC(=O)c1cccc([N+](=O)[O-])c1
inactive: [9] 101 % of control | [10] 95 % of control | [11] 93 % of control

CC(C)(O)C(Cc1ccccc1)c1ccccc1 (centres undefined)
inactive: dose: 6.25 mg/kg/injection, schedule: Q04DX002 (ip), vehicle: saline with Tween-80 91 % of control | dose: 12.5 mg/kg/injection, schedule: Q04DX002 (ip), vehicle: saline with Tween-80 98 % of control | [7] 102 % of control

CC(=O)Nc1ccc(OCc2ccccc2)cc1[N+](=O)[O-]
inactive: [15] 95 % of control | [1] 101 % of control | [2] 98 % of control | [3] 93 % of control

COc1ccc(N2CCNCC2)cc1
inactive: dose: 5.0 mg/kg/injection, schedule: Q01DX001 (ip), vehicle: saline 103 % of control | dose: 10.0 mg/kg/injection, schedule: Q01DX001 (ip), vehicle: saline 103 % of control | dose: 20.0 mg/kg/injection, schedule: Q01DX001 (ip), vehicle: saline 97 % of control | dose: 40.0 mg/kg/injection, schedule: Q01DX001 (ip), vehicle: saline 105 % of control

COc1ccc(C=NC(C)(C)CO)cc1OC
inactive: dose: 100.0 mg/kg/injection, schedule: Q01DX001 (ip), vehicle: steriod suspending solution 108 % of control | dose: 200.0 mg/kg/injection, schedule: Q01DX001 (ip), vehicle: steriod suspending solution 103 % of control | dose: 400.0 mg/kg/injection, schedule: Q01DX001 (ip), vehicle: steriod suspending solution 101 % of control

CN(C)C(=S)Oc1c([N+](=O)[O-])cc([N+](=O)[O-])cc1C(C)(C)C
inactive: [7] 86 % of control | [8] 86 % of control

Cc1ccc(CNC(=O)Nc2c(C)cccc2C)cc1C
inactive: [4] 102 % of control | [5] 108 % of control | [6] 97 % of control
